Results: patent publication US20110230476A1, “PI3 KINASE INHIBITORS AND USES THEREOF” (AVILA THERAPEUTICS, INC., priority 2009, published 2011)
Entries after “also recorded” stand apart in the source; their conditions may differ.

Columns and labels:
[1] = tested on: PI3K; test: PI3K HCT116 cellular assay (Western blot); format: cell-based; conditions: Homo sapiens, HCT-116, HCT116 colon cancer cells, 1 hour incubation, read-out: PI3K Inhibition
Procedure: PI3K HCT116 Cellular Assay
Selected compounds were assayed in HCT116 colon cancer cells. […] Cells were then washed with PBS, lysed and the protein lysates were then recovered and analyzed by Western blot.

[2] = target: T1, PI3Kα (Homo sapiens, UniProt P42336); test: Mass spectrometry of intact PI3Kα (Johns Hopkins), 3 hr incubation; format: binding; design: Johns Hopkins; conditions: 10× fold excess of compound, MALDI
Procedure: (§1) Mass Spectrometry for PI3K
Intact PI3Kα (Johns Hopkins) was incubated for 3 hr at a 10× fold excess of II-a-45 or II-a-49 to protein. Aliquots (3 μL) of the samples were diluted with 10 μL of 0.1% TFA prior to micro C4 ZipTipping directly onto the MALDI target using Sinapinic acid as the desorption matrix (10 mg/ml in 0.1% TFA:Acetonitrile 50:50).
Target sequence in this assay (P42336 whole entry): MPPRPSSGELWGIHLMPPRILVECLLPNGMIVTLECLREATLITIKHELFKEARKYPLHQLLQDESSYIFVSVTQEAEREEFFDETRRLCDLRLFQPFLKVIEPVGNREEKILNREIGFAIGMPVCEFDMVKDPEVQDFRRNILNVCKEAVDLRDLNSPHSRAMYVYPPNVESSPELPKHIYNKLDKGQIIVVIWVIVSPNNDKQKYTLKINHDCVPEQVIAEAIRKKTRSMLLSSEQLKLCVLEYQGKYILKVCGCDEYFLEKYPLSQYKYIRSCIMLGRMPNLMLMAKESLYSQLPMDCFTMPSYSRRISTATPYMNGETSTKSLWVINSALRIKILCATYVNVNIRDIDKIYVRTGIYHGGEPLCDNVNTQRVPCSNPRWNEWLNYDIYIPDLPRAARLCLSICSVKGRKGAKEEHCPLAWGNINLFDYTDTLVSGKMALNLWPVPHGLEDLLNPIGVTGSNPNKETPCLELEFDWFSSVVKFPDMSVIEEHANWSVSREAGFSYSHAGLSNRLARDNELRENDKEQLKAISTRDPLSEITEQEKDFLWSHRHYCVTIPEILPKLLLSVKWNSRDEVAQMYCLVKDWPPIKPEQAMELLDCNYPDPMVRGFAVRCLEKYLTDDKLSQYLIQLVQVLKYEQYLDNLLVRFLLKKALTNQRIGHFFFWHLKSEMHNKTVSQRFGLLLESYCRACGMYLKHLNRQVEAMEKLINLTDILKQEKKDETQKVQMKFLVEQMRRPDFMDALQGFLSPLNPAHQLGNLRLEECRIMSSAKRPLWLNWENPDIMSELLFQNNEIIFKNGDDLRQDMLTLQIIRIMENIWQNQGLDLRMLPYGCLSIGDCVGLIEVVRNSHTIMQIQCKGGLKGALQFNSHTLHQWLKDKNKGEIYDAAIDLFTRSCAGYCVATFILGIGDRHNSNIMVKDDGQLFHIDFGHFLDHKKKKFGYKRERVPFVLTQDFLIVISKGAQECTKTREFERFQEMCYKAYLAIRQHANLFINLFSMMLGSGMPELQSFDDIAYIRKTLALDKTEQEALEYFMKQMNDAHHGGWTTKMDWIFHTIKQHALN
Target sequence in this assay (P27986 322-600 partner limits assumed): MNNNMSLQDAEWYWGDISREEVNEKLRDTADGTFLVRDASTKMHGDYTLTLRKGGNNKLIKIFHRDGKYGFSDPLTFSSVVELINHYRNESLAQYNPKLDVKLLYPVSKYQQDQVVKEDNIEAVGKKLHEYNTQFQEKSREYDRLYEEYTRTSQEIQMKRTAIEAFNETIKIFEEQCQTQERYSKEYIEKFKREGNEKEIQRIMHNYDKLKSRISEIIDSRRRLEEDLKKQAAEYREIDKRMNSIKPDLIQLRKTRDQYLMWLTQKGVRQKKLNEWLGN

[3] = target: T2, PI3Kα (p110α/p85α) (Homo sapiens, UniProt P42336); test: HTRF assay, potency against active PI3Kα; format: biochemical; conditions: for IC50: HTRF, [ATP]=50 μM, [di-C8-PIP2]=10 μM, 30 min pre-incubation, read-out: PI3Kα Inhibition
T2 construct: purchased BPS Bioscience (San Diego, Calif.) or Millipore (Billerica, Mass.)
T2 sequence (P42336 whole entry): as the sequence (P42336 whole entry) above
T2 sequence (P27986 whole entry partner): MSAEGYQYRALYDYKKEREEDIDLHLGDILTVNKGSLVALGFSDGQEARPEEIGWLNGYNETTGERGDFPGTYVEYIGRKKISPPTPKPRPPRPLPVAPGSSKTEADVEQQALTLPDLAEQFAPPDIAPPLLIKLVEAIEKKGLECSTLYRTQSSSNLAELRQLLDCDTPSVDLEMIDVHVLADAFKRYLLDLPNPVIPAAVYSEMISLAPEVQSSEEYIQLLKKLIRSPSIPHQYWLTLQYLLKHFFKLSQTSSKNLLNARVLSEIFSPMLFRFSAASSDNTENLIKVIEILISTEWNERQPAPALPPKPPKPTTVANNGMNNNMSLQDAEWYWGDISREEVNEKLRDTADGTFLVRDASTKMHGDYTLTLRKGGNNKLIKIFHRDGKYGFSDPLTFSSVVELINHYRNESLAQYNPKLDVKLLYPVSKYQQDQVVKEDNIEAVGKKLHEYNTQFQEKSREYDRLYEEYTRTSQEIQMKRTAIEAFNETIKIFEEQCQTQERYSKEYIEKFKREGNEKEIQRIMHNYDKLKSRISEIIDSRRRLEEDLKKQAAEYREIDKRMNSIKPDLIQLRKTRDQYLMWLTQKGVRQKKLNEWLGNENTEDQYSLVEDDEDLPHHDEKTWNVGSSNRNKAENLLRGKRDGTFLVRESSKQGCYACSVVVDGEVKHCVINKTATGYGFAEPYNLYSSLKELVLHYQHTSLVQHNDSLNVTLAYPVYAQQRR
Summary of the method: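 Active p110/p85α lipid kinase reactions were started with ATP and run 30-60 minutes at 25 °C, then stopped and developed with HTRF detection mix. HTRF ratio converted to % inhibition against ±enzyme controls; IC50 from log[inhibitor] vs response, variable slope.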

[4] = target: T3, PI3Kγ (p120γ) (Homo sapiens, UniProt P48736); test: HTRF assay, potency against active PI3Kγ; format: biochemical; conditions: [ATP]=50 μM, [di-C8-PIP2]=10 μM, 30 min pre-incubation, read-out: PI3Kγ Inhibition
T3 construct: purchased BPS Bioscience (San Diego, Calif.) or Millipore (Billerica, Mass.)
T3 sequence (P48736 whole entry): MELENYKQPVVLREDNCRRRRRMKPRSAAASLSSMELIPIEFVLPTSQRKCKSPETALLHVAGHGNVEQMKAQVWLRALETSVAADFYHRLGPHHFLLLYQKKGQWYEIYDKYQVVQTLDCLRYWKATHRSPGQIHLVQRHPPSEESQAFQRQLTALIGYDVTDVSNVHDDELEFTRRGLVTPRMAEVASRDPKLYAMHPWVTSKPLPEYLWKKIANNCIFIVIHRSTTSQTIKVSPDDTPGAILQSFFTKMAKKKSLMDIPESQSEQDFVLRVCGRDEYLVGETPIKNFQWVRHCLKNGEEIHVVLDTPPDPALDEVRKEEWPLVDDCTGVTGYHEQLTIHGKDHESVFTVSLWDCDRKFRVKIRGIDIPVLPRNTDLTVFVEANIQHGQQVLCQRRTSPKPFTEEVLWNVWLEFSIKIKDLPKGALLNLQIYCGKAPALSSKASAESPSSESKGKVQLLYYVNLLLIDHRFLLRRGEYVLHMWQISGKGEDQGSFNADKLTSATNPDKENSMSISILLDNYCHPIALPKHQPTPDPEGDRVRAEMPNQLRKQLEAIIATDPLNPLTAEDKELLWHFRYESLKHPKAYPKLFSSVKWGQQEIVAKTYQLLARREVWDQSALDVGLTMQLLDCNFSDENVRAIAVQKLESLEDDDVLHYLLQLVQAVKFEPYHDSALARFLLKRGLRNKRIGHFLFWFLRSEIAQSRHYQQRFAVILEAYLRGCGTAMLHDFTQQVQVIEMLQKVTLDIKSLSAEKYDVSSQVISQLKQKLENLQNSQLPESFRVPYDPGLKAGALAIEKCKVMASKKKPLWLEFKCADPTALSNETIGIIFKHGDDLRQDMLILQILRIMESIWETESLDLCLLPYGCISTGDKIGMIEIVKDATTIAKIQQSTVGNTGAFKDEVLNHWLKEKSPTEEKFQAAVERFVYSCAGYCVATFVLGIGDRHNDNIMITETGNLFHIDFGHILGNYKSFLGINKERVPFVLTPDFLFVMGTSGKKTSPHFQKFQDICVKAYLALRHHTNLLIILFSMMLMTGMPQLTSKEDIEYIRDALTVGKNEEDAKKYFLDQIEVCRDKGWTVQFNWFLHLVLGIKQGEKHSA
Summary of the method: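 End-point competition HTRF: enzyme (p110β/p85α 0.75 nM; p120γ 2-2.5 nM) with 10 μM di-C8-PIP2 pre-incubated 30 min at 25° C with compound, then 50 μM ATP added for 30-60 min at 25° C. Stopped, detected after 1 and 18 h; IC50 from variable-slope fit.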

[5] = tested on: Phospho-Akt(Ser473); test: Dose response in SKOV3 cells as determined by in-cell Western; format: cell-based; conditions: Homo sapiens, SK-OV-3; SKOV3 cells, 1 hr; read-out: pAKT Inhibition in cell Western
Summary of the method: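 SKOV3 cells treated with compound for 1 hr, then formaldehyde-fixed, permeabilised and stained overnight for phospho-Akt(Ser473) with anti-tubulin as a reference. Infrared secondary antibodies read at 680 and 800 nm channels by in-cell Western imaging.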

[6] = target: T4, PI3Kβ (p110β/p85α) (Homo sapiens, UniProt P42338); test: HTRF assay, potency against active PI3Kβ; format: biochemical; conditions: [ATP]=50 μM, [di-C8-PIP2]=10 μM, 30 min pre-incubation, read-out: PI3Kβ Inhibition
T4 construct: purchased BPS Bioscience (San Diego, Calif.) or Millipore (Billerica, Mass.)
T4 sequence (P42338 whole entry): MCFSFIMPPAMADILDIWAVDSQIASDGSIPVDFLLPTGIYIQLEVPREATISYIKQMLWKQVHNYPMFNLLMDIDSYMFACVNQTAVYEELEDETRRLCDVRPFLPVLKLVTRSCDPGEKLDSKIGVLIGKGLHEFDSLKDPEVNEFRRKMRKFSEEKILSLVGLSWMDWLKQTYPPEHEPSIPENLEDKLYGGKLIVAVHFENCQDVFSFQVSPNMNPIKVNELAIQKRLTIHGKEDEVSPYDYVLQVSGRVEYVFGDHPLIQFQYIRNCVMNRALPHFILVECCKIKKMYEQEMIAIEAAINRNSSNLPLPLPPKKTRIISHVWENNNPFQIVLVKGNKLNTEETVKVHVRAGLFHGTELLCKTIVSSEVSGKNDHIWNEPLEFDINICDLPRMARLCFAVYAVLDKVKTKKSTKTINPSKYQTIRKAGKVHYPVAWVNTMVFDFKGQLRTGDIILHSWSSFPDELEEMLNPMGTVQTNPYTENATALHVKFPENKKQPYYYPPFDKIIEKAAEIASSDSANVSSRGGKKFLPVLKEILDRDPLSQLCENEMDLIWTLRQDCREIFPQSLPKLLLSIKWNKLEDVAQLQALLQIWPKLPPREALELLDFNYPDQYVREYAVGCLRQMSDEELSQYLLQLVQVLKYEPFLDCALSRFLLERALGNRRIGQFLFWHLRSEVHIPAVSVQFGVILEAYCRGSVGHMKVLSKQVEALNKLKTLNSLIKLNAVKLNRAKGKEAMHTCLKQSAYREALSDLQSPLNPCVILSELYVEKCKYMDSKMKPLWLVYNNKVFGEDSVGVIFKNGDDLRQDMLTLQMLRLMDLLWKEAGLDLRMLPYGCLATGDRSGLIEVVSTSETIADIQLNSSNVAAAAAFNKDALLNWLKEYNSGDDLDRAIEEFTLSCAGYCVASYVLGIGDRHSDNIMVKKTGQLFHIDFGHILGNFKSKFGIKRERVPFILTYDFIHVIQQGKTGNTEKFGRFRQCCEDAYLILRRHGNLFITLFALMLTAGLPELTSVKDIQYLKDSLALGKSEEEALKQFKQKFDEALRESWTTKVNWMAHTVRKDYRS
T4 sequence (P27986 whole entry partner): as the sequence (P27986 whole entry partner) above
Procedure: Homogeneous Time Resolved Fluorescence (HTRF) Assay Protocol for Potency Assessment Against the Active Forms of PI3Kα, PI3Kβ, and PI3Kγ
The mechanics of the assay platform are best described by the vendor (Millipore, Billerica, Mass.) on their website at the following URL: www.millipore.com/coa/tech1/74jt4z.
Briefly, Stop solution (Stop A, #33-007 and Stop B, #33-009; 3:1 ratio) and Detection Mix (from DMC, #33-015 with DMA, #33-011 and DMB, #33-013; 18:1:1 ratio) were prepared as recommended by the manufacturer about 2 hrs prior to use. […] Lipid kinase reactions were started with the addition of 5 μL of ATP solution, mixed for 15 sec on a rotary plate shaker and incubated for 30-60 minutes at 25° C. Next, reactions were stopped with a 5 μL addition of Stop solution immediately followed by a 5 μL volume of Detection Mix. […] At the conclusion of each assay, the HTRF ratio from fluorescence emission values for each well was calculated and % Inhibition determined from averaged controls wells (+/−PI3K enzyme). % Inhibition values for each compound were then plotted against inhibitor concentration to estimate IC50 from log [Inhibitor] vs Response, Variable Slope model in GraphPad Prism from GraphPad Software (San Diego, Calif.).

[7] = tested on: Phospho-Akt(Ser473); test: Dose response in SKOV3 cells as determined by Western blot; format: cell-based; conditions: Homo sapiens, SK-OV-3, 1 hr, Phospho-Akt normalized to total Akt, read-out: Immunoblot
Procedure: Dose Response in SKOV3 Cells as Determined by Western Blot
SKOV3 cells were plated in SKOV3 Growth Media (DMEM supplemented with 10% FBS and pen/strep) at a density of 4×10^5 cells per well of 12 well plates. Twenty four hours later the media was removed and replaced with 1 ml media containing test compound and 0.1% DMSO and cells were returned to the incubator for 1 hr. At the end of the hour, the media was removed and the cells were washed with PBS, then lysed and scraped into 30 ul of Cell Extraction Buffer (Biosource, Camarillo, Calif.) plus Complete Protease Inhibitor and PhosStop Phosphatase Inhibitor (Roche, Indianapolis, Ind.).
Cell debris was spun down at 13,000×g for 1 minute and the supernatant was taken as the cell lysate. Protein concentration of the lysate was determined by BCA Assay (Pierce Biotechnology, Rockford, Ill.) and 50 ug of protein was loaded per well onto a NuPAGE Novex 4-12% Bis-Tris gel (Invitrogen, Carlsbad, Calif.) then transferred to Immobilon PVDF-FL (Millipore, Billerica, Mass.).
The blot was blocked in Odyssey Blocking Buffer (Li-Cor Biosciences, Lincoln, Nebr.) for 1 hr then incubated overnight at 4° C. with mouse anti-Akt (#2920) and rabbit anti-Phospho-Akt(Ser473) (#9271)(Cell Signaling Technology, Boston, Mass.) antibodies, both diluted 1:1000 in PBS/Odyssey Buffer (1:1)+0.1% Tween-20. The blots were washed 3 times 5 minutes in PBS+0.2% Tween-20 then incubated for 1 hr at room temperature with fluorescently labeled secondary antibodies (Li-Cor) diluted 1:10000 in PBS/Odyssey Buffer (1:1)+0.1% Tween-20.
The blots were washed 2 times for 5 minutes in PBS+0.2% Tween-20, once in distilled water, then scanned on an Odyssey machine (Li-Cor). Band intensity was determined using the Odyssey software and Phopho-Akt signal was normalized to total Akt within samples, then expressed as a percentage of the untreated Phospho-Akt signal.

[8] = target: T1, PI3Kα; test: Mass spectrometry of intact PI3Kα (Millipore, 14-602), 1 hr incubation; format: binding; design: purchased Millipore 14-602; conditions: 10× fold excess of compound, MALDI
Procedure: as §1
Target sequence in this assay (P42336 whole entry): as the sequence (P42336 whole entry) above
Target sequence in this assay (P27986 whole entry partner): as the sequence (P27986 whole entry partner) above
Aliquots (5 μl) of the samples were diluted with 15 μl of 0.2% TFA prior to micro C4 ZipTipping directly onto the MALDI target using Sinapinic acid as the desorption matrix (10 mg/ml in 0.1% TFA:Acetonitrile 50:50).

SMILES | EC50 [1] [nM] | covalent modification of PI3Kα [2] | IC50 [3] [nM] | IC50 [4] [nM] | EC50 [5] [nM] | covalent modification of PI3Kα [8] | also measured
C/C=C/C(=O)CCC(=O)NCC(=O)N1CCN(Cc2cc3nc(-c4cccc5[nH]ncc45)nc(N4CCOCC4)c3s2)CC1 [II-a-16, (E)-N-(2-(4-((2-(1H-indazol-4-yl)-4-morpholinothieno[3,2-d]pyrimidin-6-yl)methyl)piperazin-1-yl)-2-oxoethyl)-4-oxohept-5-enamide] | 100 to 500 | completely modify | < 10 | > 1000 | – | – | times more potent than its reversible counterpart II^R-a-16 ([3]; PI3Kα HTRF assay): about 35 times
C=C(C)C(=O)CCC(=O)NCC(=O)N1CCN(Cc2cc3nc(-c4cccc5[nH]ncc45)nc(N4CCOCC4)c3s2)CC1 [II-a-33, N-(2-(4-((2-(1H-indazol-4-yl)-4-morpholinothieno[3,2-d]pyrimidin-6-yl)methyl)piperazin-1-yl)-2-oxoethyl)-5-methyl-4-oxohex-5-enamide] | 20 to 100 | completely modify | 10 to 100 | > 1000 | – | – | –
C/C=C/C(=O)CCC(=O)NCC(=O)N1CCN(Cc2cc3nc(-c4cccc(O)c4)nc(N4CCOCC4)c3s2)CC1 [II-a-37, (E)-N-(2-(4-((2-(3-hydroxyphenyl)-4-morpholinothieno[3,2-d]pyrimidin-6-yl)methyl)piperazin-1-yl)-2-oxoethyl)-4-oxohept-5-enamide] | 20 to 100 | completely modify | < 10 | > 1000 | 100 to 1000 | – | –
C/C=C/C(=O)CCC(=O)N1CC=C(c2cc3nc(-c4cccc(O)c4)nc(N4CCOCC4)c3s2)CC1 [II-a-45, (E)-1-(4-(2-(3-hydroxyphenyl)-4-morpholinothieno[3,2-d]pyrimidin-6-yl)-5,6-dihydropyridin-1(2H)-yl)hept-5-ene-1,4-dione] | 100 to 500 | covalent modification; also recorded: complete modification | < 10 | 100 to 1000 | ≤ 10 | – | positive mass shift of PI3Kα [2]: 563 Da
CC(C)/C=C/C(=O)CCC(=O)N1CCN(Cc2cc3nc(-c4cccc5[nH]ncc45)nc(N4CCOCC4)c3s2)CC1 [II-a-54, (E)-1-(4-((2-(1H-indazol-4-yl)-4-morpholinothieno[3,2-d]pyrimidin-6-yl)methyl)piperazin-1-yl)-7-methyloct-5-ene-1,4-dione] | – | completely modify | 10 to 100 | > 1000 | – | – | –
C/C=C/C(=O)CCC(=O)N1CCN(Cc2cc3nc(-c4cnc(N)nc4)nc(N4CCOCC4)c3s2)CC1 [II-a-112, (E)-1-(4-((2-(2-aminopyrimidin-5-yl)-4-morpholinothieno[3,2-d]pyrimidin-6-yl)methyl)piperazin-1-yl)hept-5-ene-1,4-dione] | – | – | 10 to 100 | – | ≤ 10 | – | IC50 [6]: 100 to 1000 nM; EC50 [7]: 10 to 100 nM
O=C(/C=C/c1ccccc1)CCC(=O)N1CCN(Cc2cc3nc(-c4cccc5[nH]ncc45)nc(N4CCOCC4)c3s2)CC1 [II-a-116, (E)-1-(4-((2-(1H-indazol-4-yl)-4-morpholinothieno[3,2-d]pyrimidin-6-yl)methyl)piperazin-1-yl)-6-phenylhex-5-ene-1,4-dione] | – | – | 10 to 100 | – | 10 to 100 | – | IC50 [6]: > 1000 nM; EC50 [7]: 10 to 100 nM
CC(C)=CC(=O)CCCC(=O)N1CC=C(c2cc3nc(-c4cnc(N)nc4)nc(C4=CCOCC4)c3s2)CC1 [II-a-169] | – | – | 10 to 100 | 100 to 1000 | – | – | IC50 [6]: > 1000 nM
CC(C)=CC(=O)CCC(=O)N1CC2(CCN(c3cc(-c4cnc(N)nc4)nc(N4CCOCC4)c3)CC2)C1 [XII-42, 1-(7-(2-(2-aminopyrimidin-5-yl)-6-morpholinopyridin-4-yl)-2,7-diazaspiro[3.5]nonan-2-yl)-6-methylhept-5-ene-1,4-dione] | – | – | > 1000 | – | 100 to 1000 | similarly modify | –
C=CC(=O)Nc1ccc(CC(=O)N2CC=C(c3cc(-c4cnc(N)nc4)nc(N4CCOCC4)c3)CC2)cc1 [XII-51, N-(4-(2-(4-(2-(2-aminopyrimidin-5-yl)-6-morpholinopyridin-4-yl)-5,6-dihydropyridin-1(2H)-yl)-2-oxoethyl)phenyl)acrylamide] | – | – | 10 to 100 | – | 10 to 100 | similarly modify | –
C=CC(=O)Nc1ccc(C(=O)N2CCC3(CC2)CN(c2cc(-c4cnc(N)nc4)nc(N4CCOCC4)c2)C3)cc1 [XII-52, N-(4-(2-(2-(2-aminopyrimidin-5-yl)-6-morpholinopyridin-4-yl)-2,7-diazaspiro[3.5]nonane-7-carbonyl)phenyl)acrylamide] | – | – | 100 to 1000 | – | 100 to 1000 | similarly modify | –
C=CC(=O)Nc1ccc(CC(=O)N2CCN(c3cc(-c4cnc(N)nc4)nc(N4CCOCC4)c3)CC2)cc1 [XII-54] | – | – | 100 to 1000 | – | 100 to 1000 | covalent modification | mass shift of PI3Kα [8]: 542 Da; mass shift of PI3Kα, per cent in brackets [8]: 103%
